Data reported in patent publication US9156877B2, “17-hydroxy-17-pentafluorethyl-estra-4,9(10)-dien-11-benzylidene derivatives, methods for the production thereof and use thereof for treating diseases” (Bayer Intellectual Property GmbH, priority 2009, dated 2015).
pIC50: −log10 of the molar value. ≈ marks a conversion by molar mass, not a printed value.

Tests used:
[1] = biological target: T1, human progesterone receptor B (Homo sapiens, UniProt P06401); assay: Progesterone receptor-antagonistic action in stably transfected SK-N-MC cells with MMTV-LUC reporter (PR-B); format: cell-based; details: antagonistic potency against 0.1 nmol/l promegestone, 24 hours, luciferase
T1 construct: expressed in transfected cells; host or cells: SK-N-MC human neuroblastoma cells, stably transfected with pRChPR-B-neo and pMMTV-LUC
T1 sequence (P06401 1-933): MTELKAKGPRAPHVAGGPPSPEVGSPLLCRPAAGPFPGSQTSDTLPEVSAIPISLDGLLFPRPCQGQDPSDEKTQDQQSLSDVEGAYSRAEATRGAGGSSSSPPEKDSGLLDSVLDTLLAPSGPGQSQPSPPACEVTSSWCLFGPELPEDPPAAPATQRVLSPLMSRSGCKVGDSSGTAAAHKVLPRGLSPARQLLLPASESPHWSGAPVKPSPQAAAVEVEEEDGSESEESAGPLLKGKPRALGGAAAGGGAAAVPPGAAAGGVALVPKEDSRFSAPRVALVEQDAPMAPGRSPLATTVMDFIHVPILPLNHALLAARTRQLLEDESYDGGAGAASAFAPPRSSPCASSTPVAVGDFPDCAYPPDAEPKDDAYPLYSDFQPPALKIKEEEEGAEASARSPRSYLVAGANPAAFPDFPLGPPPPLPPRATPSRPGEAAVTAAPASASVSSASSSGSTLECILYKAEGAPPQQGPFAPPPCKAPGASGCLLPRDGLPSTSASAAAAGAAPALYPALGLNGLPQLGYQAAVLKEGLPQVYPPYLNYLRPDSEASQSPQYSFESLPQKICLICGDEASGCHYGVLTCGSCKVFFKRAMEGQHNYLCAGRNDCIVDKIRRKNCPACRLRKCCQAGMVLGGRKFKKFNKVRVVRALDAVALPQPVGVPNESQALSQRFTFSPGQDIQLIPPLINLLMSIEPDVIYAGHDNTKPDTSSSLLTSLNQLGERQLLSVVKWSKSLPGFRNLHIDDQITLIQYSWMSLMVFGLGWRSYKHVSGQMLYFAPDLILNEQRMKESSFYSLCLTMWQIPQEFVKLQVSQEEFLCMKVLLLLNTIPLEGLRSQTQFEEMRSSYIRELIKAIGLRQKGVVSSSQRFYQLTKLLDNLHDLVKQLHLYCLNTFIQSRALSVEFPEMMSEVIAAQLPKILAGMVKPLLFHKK
Method: (§1) Determination of Progesterone Receptor-Antagonistic Action in Stable Transfectants of Human Neuroblastoma Cells (SK-N-MC Cells) with the Human Progesterone A or Progesterone B Receptor and an MN-LUC Reporter Construct
(§2) SK-N-MC cells (human neuroblastoma cells) which have been stably transfected with plasmids expressing the human progesterone receptor B (pRChPR-B-neo) or the human progesterone receptor A (pRChPR-A-neo) and a reporter construct (pMMTV-LUC) were incubated for 24 hours either in the absence (negative control) or in the presence of ascending amounts of the particular test compound (0.01 nmol/l, 0.1 nmol/l, 1 nmol/l, 10 nmol/l, 100 nmol/l and […]), in order to determine the agonistic efficacy. As a positive control of the reporter gene induction, the cells were treated with the synthetic gestagen promegestone (0.01 nmol/l, 0.1 nmol/l, 1 nmol/l, 10 nmol/l, 100 nmol/l and […]). To determine the antagonistic activity, the cells were treated with 0.1 nmol/l promegestone and additionally with ascending amounts of the particular test compound (0.01 nmol/l, 0.1 nmol/l, 1 nmol/l, 10 nmol/l, 100 nmol/l and […]). The activity of the reporter gene LUC (LUC=luciferase) was determined in the cell lysates and measured as RLU (relative light units). All measurements are reported as % efficacy and as EC50 and IC50 concentrations.

[2] = biological target: T2, human progesterone receptor A (Homo sapiens, UniProt P06401); assay: Progesterone receptor-antagonistic action in stably transfected SK-N-MC cells with MMTV-LUC reporter (PR-A); format: cell-based; details: antagonistic potency against 0.1 nmol/l promegestone, 24 hours, luciferase
T2 construct: expressed in transfected cells; host or cells: SK-N-MC human neuroblastoma cells, stably transfected with pRChPR-A-neo and pMMTV-LUC
T2 sequence (P06401 1-769 isoform P06401-2): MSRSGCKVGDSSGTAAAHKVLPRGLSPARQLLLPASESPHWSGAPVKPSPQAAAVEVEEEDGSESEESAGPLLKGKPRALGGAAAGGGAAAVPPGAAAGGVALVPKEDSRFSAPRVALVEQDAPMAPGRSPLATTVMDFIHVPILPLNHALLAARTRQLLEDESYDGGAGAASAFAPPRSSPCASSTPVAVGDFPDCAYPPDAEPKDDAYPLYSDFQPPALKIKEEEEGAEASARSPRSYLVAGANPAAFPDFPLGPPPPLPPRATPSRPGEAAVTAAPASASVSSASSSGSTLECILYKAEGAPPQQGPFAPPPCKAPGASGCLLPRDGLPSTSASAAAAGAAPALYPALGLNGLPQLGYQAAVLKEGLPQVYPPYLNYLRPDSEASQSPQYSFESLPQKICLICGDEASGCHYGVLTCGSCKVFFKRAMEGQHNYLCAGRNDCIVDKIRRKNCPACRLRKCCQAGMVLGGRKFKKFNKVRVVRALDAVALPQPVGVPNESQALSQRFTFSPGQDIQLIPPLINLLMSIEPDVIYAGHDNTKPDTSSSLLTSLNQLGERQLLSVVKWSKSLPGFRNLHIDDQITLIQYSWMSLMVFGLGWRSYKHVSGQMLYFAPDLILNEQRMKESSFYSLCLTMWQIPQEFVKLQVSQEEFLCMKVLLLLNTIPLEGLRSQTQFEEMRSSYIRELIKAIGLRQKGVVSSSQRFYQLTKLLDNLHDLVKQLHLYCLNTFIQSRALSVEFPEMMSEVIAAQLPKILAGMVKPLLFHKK
Method: as §1, §2

[3] = Metabolic stability in rat liver microsomes; format: in vitro ADME; details: for Predicted clearance [l/h/kg] Rat: well-stirred model
Method: (§3) Determination of Metabolic Stability in Human and Rat Liver Microsomes
(§4) The incubations were conducted with 2.4 ml of HLM solution (protein content 0.5 mg/ml), 30 μl of the test compound (final concentration 1 μM) and 0.6 ml of the cofactor mixture (═NADPH-generating system composed of 3 IU glucose-6-phosphate dehydrogenase, 14.6 mg glucose-6-phosphate, 1.2 mg NADP) at 37° C. in 100 mM phosphate buffer at pH 7.4. Samples were taken at 6 time points (2-60 min) and precipitated with an equal volume of methanol, and the recovery of the test substances used in the supernatant was determined by LC-MS/MS analysis. The half-life of substance degradation determined therefrom was used to calculate what is called the intrinsic clearance of the substance in the liver microsome preparation. […] In addition, under the assumptions that (i) absorption of the test substance is 100%, and (ii) the first pass is completely reflected by liver microsome metabolism, a maximum oral bioavailability (Fmax) was calculated.

[4] = Metabolic stability in human liver microsomes; format: in vitro ADME; details: for Predicted clearance [l/h/kg] Human: 1 μM, well-stirred model
Method: as §3
Isolated human liver microsomes (HLM) were used to assess the metabolic stability of compounds of general formula I.
as §4

[5] = Solubility in aqueous medium at pH 7.4; format: physicochemical; details: aqueous medium, pH 7.4, aqueous buffer
Source text: In addition, some compounds have an unusually good solubility, for this active ingredient class, in aqueous medium under physiological conditions (Table 2).

C[C@]12C[C@H](c3ccc(/C=C/c4ccccn4)cc3)C3=C4CCC(=O)C=C4CC[C@H]3[C@@H]1CC[C@@]2(O)C(F)(F)C(F)(F)F [Example 6, (8S,11R,13S,14S,17S)-17-hydroxy-13-methyl-17-pentafluoroethyl-11-[4-((E)-2-pyridin-2-ylvinyl)phenyl]-1,2,6,7,8,11,12,13,14,15,16,17-dodecahydrocyclopenta[a]phenanthren-3-one]
pIC50 [1]: 9.92
pIC50 [2]: 9.80
Predicted Fmax [%] (maximum oral bioavailability) Rat [3]: 83%
Predicted clearance [l/h/kg] Rat [3]: 0.7 L/h/kg
Predicted Fmax [%] (maximum oral bioavailability) Human [4]: 84%
Predicted clearance [l/h/kg] Human [4]: 0.21 L/h/kg
solubility [5]: 9 µg/mL (≈ 15.8 µM)

C=Cc1ccc([C@H]2C[C@@]3(C)[C@@H](CC[C@@]3(O)C(F)(F)C(F)(F)F)[C@@H]3CCC4=CC(=O)CCC4=C32)cc1 [Example 1, (8S,11R,13S,14S,17S)-17-hydroxy-13-methyl-17-pentafluoroethyl-11-(4-vinylphenyl)-1,2,6,7,8,11,12,13,14,15,16,17-dodecahydrocyclopenta[a]phenanthren-3-one]
pIC50 [1]: 10.92
Predicted clearance [l/h/kg] Rat [3]: 1.9 L/h/kg
Predicted clearance [l/h/kg] Human [4]: 0.90 L/h/kg
solubility [5]: 6 µg/mL (≈ 12.2 µM)

C[C@]12C[C@H](c3ccc(/C=C/CNC(=O)NCC(=O)O)cc3)C3=C4CCC(=O)C=C4CCC3C1CC[C@@]2(O)C(F)(F)C(F)(F)F (stereo partly drawn) [Example 52, 3-(3-{(E)-3-[4-((8S,11R,13S,14S,17S)-17-hydroxy-13-methyl-3-oxo-17-pentafluoroethyl-2,3,6,7,8,11,12,13,14,15,16,17-dodecahydro-1H-cyclopenta[a]phenanthren-11-yl)phenyl]allyl}ureido)acetic acid]
pIC50 [1]: 8.70
pIC50 [2]: 8.52

Cc1noc(C)c1NC(=O)NC/C=C/c1ccc([C@H]2C[C@@]3(C)[C@@H](CC[C@@]3(O)C(F)(F)C(F)(F)F)[C@@H]3CCC4=CC(=O)CCC4=C32)cc1 [Example 48, 1-(3,5-dimethylisoxazol-4-yl)-3-{(E)-3-[4-((8S,11R,13S,14S,17S)-17-hydroxy-13-methyl-3-oxo-17-pentafluoroethyl-2,3,6,7,8,11,12,13,14,15,16,17-dodecahydro-1H-cyclopenta[a]phenanthren-11-yl)phenyl]allyl}urea]
pIC50 [1]: 10.52
pIC50 [2]: 10.05

C[C@]12C[C@H](c3ccc(/C=N/OCC(=O)O)cc3)C3=C4CCC(=O)C=C4CC[C@H]3[C@@H]1CC[C@@]2(O)C(F)(F)C(F)(F)F [Example 34, [1-[4-((8S,11R,13S,14S,17S)-17-hydroxy-13-methyl-3-oxo-17-pentafluoroethyl-2,3,6,7,8,11,12,13,14,15,16,17-dodecahydro-1H-cyclopenta[a]phenanthren-11-yl)phenyl]meth-(E)-ylideneaminooxy]acetic acid]
pIC50 [1]: 8.55
pIC50 [2]: 8.41

CCOC(=O)/C=C/c1ccc([C@H]2C[C@@]3(C)[C@@H](CC[C@@]3(O)C(F)(F)C(F)(F)F)[C@@H]3CCC4=CC(=O)CCC4=C32)cc1 [Example 12, (E)-3-[4-((8S,11R,13S,14S,17S)-17-hydroxy-13-methyl-3-oxo-17-pentafluoroethyl-2,3,6,7,8,11,12,13,14,15,16,17-dodecahydro-1H-cyclopenta[a]phenanthren-11-yl)phenyl]acrylic acid ethyl ester]
pIC50 [1]: 9.59
pIC50 [2]: 9.89

COC(=O)C(C/C=C/c1ccc([C@H]2C[C@@]3(C)[C@@H](CC[C@@]3(O)C(F)(F)C(F)(F)F)[C@@H]3CCC4=CC(=O)CCC4=C32)cc1)C(=O)OC [Example 4, 2-{(E)-3-[4-((8S,11R,13S,14S,17S)-17-hydroxy-13-methyl-3-oxo-17-pentafluoroethyl-2,3,6,7,8,11,12,13,14,15,16,17-dodecahydro-1H-cyclopenta[a]phenanthren-11-yl)phenyl]allyl}malonic acid dimethyl ester]
pIC50 [1]: 8.96
pIC50 [2]: 9.00

CC(C)(C)c1ccc(NC(=O)NC/C=C/c2ccc([C@H]3C[C@@]4(C)C(CC[C@@]4(O)C(F)(F)C(F)(F)F)C4CCC5=CC(=O)CCC5=C43)cc2)cc1 (stereo partly shown) [Example 47]
pIC50 [1]: 9.52
pIC50 [2]: 9.10

Cc1nc(/C=C/c2cccc([C@H]3C[C@@]4(C)[C@@H](CC[C@@]4(O)C(F)(F)C(F)(F)F)[C@@H]4CCC5=CC(=O)CCC5=C43)c2)cs1 [Example 24, (8S,11R,13S,14S,17S)-17-hydroxy-13-methyl-11-{3-[(E)-2-(2-methylthiazol-4-yl)vinyl]phenyl}-17-pentafluoroethyl-1,2,6,7,8,11,12,13,14,15,16,17-dodecahydrocyclopenta[a]phenanthren-3-one]
pIC50 [1]: 9.00
pIC50 [2]: 9.00

C[C@]12C[C@H](c3ccc(CO)cc3)C3=C4CCC(=O)C=C4CC[C@H]3[C@@H]1CC[C@@]2(O)C(F)(F)C(F)(F)F [Ref. 1, (8S,11R,13S,14S,17S)-17-hydroxy-11-[4-(hydroxymethyl)phenyl]-13-methyl-17-pentafluoroethyl-1,2,6,7,8,11,12,13,14,15,16,17-dodecahydrocyclopenta[a]phenanthren-3-one, reference compound]
pIC50 [1]: 9.10
pIC50 [2]: 9.15
Predicted clearance [l/h/kg] Rat [3]: 0.8 L/h/kg
Predicted clearance [l/h/kg] Human [4]: 0.7 L/h/kg

C=C(C)c1cccc([C@H]2C[C@@]3(C)[C@@H](CC[C@@]3(O)C(F)(F)C(F)(F)F)[C@@H]3CCC4=CC(=O)CCC4=C32)c1 [Example 20, (8S,11R,13S,14S,17S)-17-hydroxy-11-(3-isopropenylphenyl)-13-methyl-17-pentafluoroethyl-1,2,6,7,8,11,12,13,14,15,16,17-dodecahydrocyclopenta[a]phenanthren-3-one]
pIC50 [1]: 7.96
pIC50 [2]: 8.05
